In brackets after ≈: the same amount, converted by molar mass.
Assays:
[1] = system: Leishmania donovani strain MHOM/ET1671L82; test: Leishmaniasis in vitro screening model (axenic amastigotes, Alamar Blue); format: cell-based
Experimental: The Leishmania donovani strain MHOM/ET1671L82 (obtained from Dr. S. Croft, London School of Hygiene and Tropical Medicine) is used. The strain is maintained in the Syrian Golden hamster. Amastigotes are collected from the spleen of an infected hamster. Amastigotes are grown in axenic culture at 37° C. in SM medium (Cunningham I., J. Protozoal. 24:325-329, 1977) at pH 5.4 supplemented with 10% heat-inactivated fetal bovine serum (FBS) under an atmosphere of 5% CO2 in air.
(§1) After use the stocks are kept at −20° C. For the assays, the compound is further diluted to the appropriate concentration using complete medium.
Assays are performed in 96-well flat-bottom microtiter plates (Costar, Corning Inc.), each well containing 100 μl of culture medium with 105 amastigotes from axenic culture with or without a serial drug dilution. Concentration of amastigotes is determined in a CASY cell analyzing system (Scharfe System, Reutlingen, Germany). Before the amastigotes are counted, the parasite culture is passed twice through a 22-gauge needle to break up clusters of amastigotes.
The highest concentration for the test compounds is 90 μg/mL. Seven 3-fold dilutions are used, covering a range from […]. Each drug is tested in duplicate. Active compounds are tested twice for confirmation. After 72 hours of incubation, the plates are inspected under an inverted microscope to assure growth of the controls and sterile conditions.
(§2) Ten μL of Alamar Blue (12.5 mg resazurin dissolved in 100 mL distilled water) are then added to each well and the plates are incubated for another 2 hours. Then the plates are read with a Spectramax GEMINI XS microplate fluorometer (Molecular Devices Cooperation, Sunnyvale, Calif., USA) using an excitation wave length of 536 nm and an emission wave length of 588 nm.
Data are analyzed using the microplate reader software Softmax Pro (Molecular Devices Cooperation, Sunnyvale, Calif., USA). Decrease of fluorescence (i.e. inhibition) is expressed as percentage of the fluorescence of control cultures and plotted against the drug concentrations. The IC50 value is calculated from the sigmoidal inhibition curve by the software program.

[2] = system: T. b. rhodesiense STIB 900; test: African sleeping sickness in vitro screening model (Alamar Blue); format: cell-based, Trypanosoma brucei rhodesiense; details: for IC50: Trypanosoma brucei
Experimental: Bloodstream from trypomastigotes of the strains (a) and (c) are maintained in Minimal Essential Medium (MEM) with Earle's salts supplemented according to Baltz, et al., (EMBO J. 4:1273-1277, 1985) with 25 mM N-2-hydroxyethylpiperazine-N′-2-ethane-sulphonic acid (HEPES), 1 g/L additional glucose, 1% MEM non-essential amino acids (100×), 0.2 mM 2-mercaptoethanol, 2 mM sodium pyruvate, 0.1 mM hypoxanthine and 15% heat-inactivated horse serum.
All cultures and assays are conducted at 37° C. under an atmosphere of 5% CO2 in air.
After use the stocks are kept at −20° C. For the assays, the compound is further diluted in serum-free culture medium and finally to the appropriate concentration in complete medium without hypoxanthine.
Assays are performed in 96-well microtiter plates, each well containing 100 μL of culture medium with 8×10^3 bloodstream forms with or without a serial drug dilution. The highest concentration for the test compounds is 90 μg/mL. Seven 3-fold drug dilutions are used, covering a range from 90 μg/mL to 0.123 μg/mL. Each drug is tested in duplicate. Active compounds are tested twice for confirmation. The final result is the mean of the four individual IC50 values. After 72 hrs of incubation, the plates are inspected under an inverted microscope to assure growth of the controls and sterile conditions.
as §2, with “are now” for “are then”, “excitation wavelength” for “excitation wave length”
IC50 values are determined using the microplate reader software Softmax Pro (Molecular Devices Cooperation, Sunnyvale, Calif., USA).

[3] = system: Trypanosoma cruzi Tulahuen C2C4 strain; test: Chagas disease in vitro screening model (beta-galactosidase strain in L-6 cells); format: cell-based
Experimental: Trypanosoma cruzi Tulahuen C2C4 strain, containing the β-galactosidase (Lac Z) gene (Buckner et al., Antimicrob. Agents Chemother 40:2592-2597, 1996) is used for this study.
The infective amastigote and trypomastigote stages are cultivated in L-6 cells (a rat skeletal myoblast cell line) in RPMI 1640 medium supplemented with 2 mM L-glutamine and 10% heat-inactivated fetal bovine serum in 12.5 cm^2 tissue culture flasks. Amastigotes develop intracellularly, differentiate into trypomastigotes, and leave the host cell. These trypomastigotes infect new L-6 cells and are the stages used to initiate an infection in the assay. All cultures and assays are conducted at 37° C. under an atmosphere of 5% CO2 in air.
as §1
Assays are performed in sterile 96-well microtiter plates, each well containing 100 μl medium with 2×10^3 L-6 cells. After 24 hours, […] of a trypanosome suspension containing 5×10^3 trypomastigote bloodstream forms from culture are added to the wells. Forty-eight hours later, the medium is removed from the wells and replaced by […] fresh medium, with or without a serial drug dilution. At this point the L-6 cells should be infected with amastigotes and no free trypomastigotes should be in the medium. Seven 3-fold drug dilutions are used, covering a range from 90 μg/mL to 0.123 μg/mL. Each drug is tested in duplicate. Active compounds are tested twice for confirmation. After 96 hours of incubation the plates are inspected under an inverted microscope to assure growth of the controls and sterility.
Then the substrate CPRG/Nonidet (50 μl) is added to all wells. A colour reaction will become visible within 2-6 hours and can be read photometrically at 540 nm. Data are transferred into a graphics program (e.g., EXCEL), sigmoidal inhibition curves determined and IC50 values calculated.

| Structure (SMILES) | L. donovani IC50 [1] [µg/mL] | T. b. rhodesiense IC50 [2] [µg/mL] | T. cruzi IC50 [3] [µg/mL] | IC50 ([1]; Leishmania donovani, read-out: L. donovani IC50) [µg/mL] | IC50 [2] [µg/mL] | IC50 ([3]; Trypanosoma cruzi, TULAHUEN, L6, read-out: T. cruzi IC50) [µg/mL] |
| --- | --- | --- | --- | --- | --- | --- |
| CN(C)CCOc1ccc(B(Oc2cccc3cccnc23)c2ccc(Cl)cc2)cc1 [Compound 104] | 0.71 | 1.24 | 4.3 |  |  |  |
| Fc1cccc(B(Oc2cccc3cccnc23)c2ccc(Cl)c(Cl)c2)c1 [Compound 46, (3,4-Dichlorophenyl)(3-fluorophenyl)borinic acid quinolin-8-yl ester] |  |  |  | 0.44 (≈ 1.11 µM) | 0.51 (≈ 1.29 µM) | 0.84 (≈ 2.12 µM) |
| N#Cc1cccc(B(Oc2cccc3cccnc23)c2cccnc2)c1 [Compound 102] | 0.37 | 0.49 | 4.2 |  |  |  |
| N#Cc1cccc(B(Oc2cccc3cccnc23)c2cc(F)cc(C(F)(F)F)c2)c1 [Compound 121] | 0.53 | 0.43 | 4.95 |  |  |  |
| Cc1cc(Cl)ccc1B(Oc1cccc2cccnc12)c1ccc(Cl)cc1C [Compound 109] | 0.75 | 0.405 | 4.35 |  |  |  |
| Fc1ccc(B(Oc2c(Cl)cc(Cl)c3cccnc23)c2ccc(Cl)cc2)cc1 [Compound 92] | 0.052 | 1.1 | 2.55 |  |  |  |
| N#Cc1cccc(B(OC(=O)c2ncccc2O)c2cccnc2)c1 [Compound 133] | 2.2 | 0.86 | 10.4 |  |  |  |
| Cc1ccc(B(OC(=O)c2ncccc2N)c2ccc(C)c(Cl)c2)cc1Cl [Compound 129] | 1.6 | 4.4 | 0.855 |  |  |  |
| N#Cc1cccc(B(Oc2cccc3cccnc23)c2ccc(F)c(F)c2)c1 [Compound 95] | 0.61 | 0.435 | 2.95 |  |  |  |
| C=CB(Oc1cccc2cccnc12)c1ccc(CN(C)C)cc1 [Compound 119] | 0.36 | 0.51 | 3.8 |  |  |  |
| Cc1cc(Cl)ccc1B(OC(=O)c1ncccc1O)c1ccc(Cl)cc1C [Compound 134] | 0.12 | 1.7 | 3.6 |  |  |  |
| Cc1ccc(B(Oc2cccc3cccnc23)c2ccco2)cc1Cl [Compound 103] | 0.35 | 0.38 | 4.4 |  |  |  |
| CN(C)Cc1ccc(B(Oc2cccc3cccnc23)c2cccc(C#N)c2)cc1.O=C(O)/C=C/C(=O)O [Compound 112] | 0.98 | 0.44 | 4.2 |  |  |  |
| C=CB(Oc1cccc2cccnc12)c1ccc(CN(C)C)cc1.Cl [Compound 124] | 0.3 | 0.445 | 3.95 |  |  |  |
| C=CB(Oc1cccc2cccnc12)c1ccc(OC)nc1 [Compound 100] | 0.33 | 0.305 | 3.8 |  |  |  |
| C=CB(Oc1cccc2cccnc12)c1cccnc1 [Compound 94] | 0.55 | 0.495 | 2.8 |  |  |  |
| Cc1cccc(B(Oc2cccc3cccnc23)c2cccc(C)c2)c1 [Compound 86] | 0.59 | 0.35 | 3 |  |  |  |
| C=CB(Oc1cccc2cccnc12)c1c(C)noc1C [Compound 118] | 0.44 | 0.265 | 3.5 |  |  |  |
| Clc1cccc(B(Oc2cccc3cccnc23)c2cccnc2)c1 [Compound 99] | 0.49 | 0.345 | 4.45 |  |  |  |
| O=C(OB(c1ccc(Cl)cc1)c1ccc(Cl)cc1)c1cccc(O)n1 [Compound 132] | 14.1 | 45.7 | 23.4 |  |  |  |
| Clc1ccc(B(Oc2c(I)cc(Cl)c3cccnc23)c2ccc(Cl)cc2)cc1 [Compound 90] | 0.15 | 1.4 | 3.25 |  |  |  |
| CN(C)Cc1ccc(B(Oc2cccc3cccnc23)c2ccc(F)c(F)c2)cc1 [Compound 110] | 0.61 | 0.38 | 4.7 |  |  |  |
| Cc1ccc(B(OC(=O)c2ncccc2O)c2ccc(C)c(Cl)c2)cc1Cl [Compound 127, Bis(3-Chloro-4-methylphenyl)borinic acid 3-hydroxypicolinate ester] | 0.36 | 2.5 | 6.3 |  |  |  |
| Cc1cc(C)c2cccnc2c1OB(c1ccc(F)cc1)c1ccc(Cl)cc1 [Compound 91] | 0.94 | 0.36 | 4.3 |  |  |  |
| C=CB(Oc1cccc2cccnc12)c1ccc(F)nc1 [Compound 101] | 0.34 | 0.3 | 3.95 |  |  |  |
| N#Cc1cccc(B(Oc2cccc3cccnc23)c2cc(F)ccc2F)c1 [Compound 113] | 0.57 | 0.39 | 4.25 |  |  |  |
| C=CB(Oc1cccc2cccnc12)c1ccco1 [Compound 117] | 0.63 | 0.295 | 3.65 |  |  |  |
| N#Cc1ccc(B(Oc2cccc3cccnc23)c2ccc(C#N)cc2)cc1 [Compound 88] | 0.76 | 0.41 | 1.385 |  |  |  |
| Cc1ccc(B(OC(=O)c2ncccc2C(=O)O)c2ccc(C)c(Cl)c2)cc1Cl [Compound 128] | 0.61 | 8 | 1.75 |  |  |  |
| CC1(C)COC(c2cccc(B(Oc3cccc4cccnc34)c3cccc(Cl)c3)c2)=N1 [Compound 18, (3-Chlorophenyl)[3-(4,5-dihydro-4,4-dimethyloxazol-2yl)phenyl]borinic acid quinolin-8-yl ester] |  |  |  |  | 1.7 (≈ 3.86 µM) |  |
